# Reference: PubChem BioAssay AID1278 (The Scripps Research Institute Molecular Screening Center, 2008)
# The source made the active and inactive calls. No rule for the calls is given here.
# Molecular target: Neuropeptide Y receptor type 2 (Homo sapiens) (UniProt P49146)
# Assay: IC50 for human NPY-Y2 blockade – cell-based, counter-screen for NPY-Y1 antagonist project, dose response (AID 1278)
# Conditions: NPY-Y2 expressing cells, antagonism, cell-based HTS
# Neuropeptide Y receptor type 2 (Homo sapiens), sequence (P49146 whole entry, looked up): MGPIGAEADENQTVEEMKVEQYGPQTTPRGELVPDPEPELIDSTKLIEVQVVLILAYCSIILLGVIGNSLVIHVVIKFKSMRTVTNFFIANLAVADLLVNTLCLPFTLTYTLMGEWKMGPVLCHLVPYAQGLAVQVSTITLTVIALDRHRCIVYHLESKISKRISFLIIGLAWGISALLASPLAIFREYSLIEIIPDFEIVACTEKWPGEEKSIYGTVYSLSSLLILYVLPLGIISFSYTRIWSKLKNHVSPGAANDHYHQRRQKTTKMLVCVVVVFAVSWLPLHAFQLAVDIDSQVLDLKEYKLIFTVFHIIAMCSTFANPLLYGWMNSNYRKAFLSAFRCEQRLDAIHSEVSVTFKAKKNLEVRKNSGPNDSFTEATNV
structure (smiles),measurement,value
CCc1cc(-c2[nH]ncc2-c2ccc3c(c2)OCO3)c(O)cc1O,IC50,< 35 µM (inactive)
